Data published in paper PMC4429480, “Simultaneous quantification of proposed anti-malarial combination comprising of lumefantrine and CDRI 97–78 in rat plasma using the HPLC–ESI-MS/MS method: application to drug interaction study” (Malaria Journal, 2015).
Marks after values point to notes of the source that are not given here.

Assays:
[1] = Stability of LUME and 97-63 in rat plasma (auto-sampler, bench top, freeze/thaw, freezer); type: in vitro ADME; settings: n = 6
Description: All stability studies were conducted at two concentration levels, i.e., QC low and QC high, using six replicates at each concentration levels. […] The peak areas of analyte and IS obtained at initial cycle were used as the reference to determine the stability at subsequent points. The stability of LUME and 97–63 in the biomatrix during 6 hrs of exposure at room temperature in rat plasma (bench top (BT)) was determined at ambient temperature (25 ± 2°C). Freeze/thaw (FT) stability was evaluated up to three cycles. In each cycle, samples were frozen for at least 12 hrs at −70 ± 10°C. Freezer stability of both analytes in rat plasma was assessed by analysing the QC samples stored at −70 ± 10°C for at least 15 days. Samples were considered to be stable if assay values were within the acceptable limits of accuracy (i.e., ±15% deviation) and precision (i.e., ±15% RSD).

[2] = Oral pharmacokinetic interaction study of LUME and 97-78 in rats (LC-ESI-MS/MS, non-compartmental analysis); type: in vivo, male Sprague–Dawley rats; settings: for RB% (relative bioavailability = AUC coadmin/AUC control × 100): LUME 10 mg/kg oral with 97-78 70 mg/kg oral vs LUME alone; for AUC(0-inf) / AUC(0-t) / CL/F / Cmax / Tmax / Vd/F / half-life: male, Sprague-Dawley, rat, plasma, po, 10 mg/kg, rats n = 5, mean ± SD
Description: Study was performed in male Sprague–Dawley rats (n = 5, weight range 200–220 g). The rats were fasted overnight (14–16 hrs) prior to the experiment but given free access to water. Rats were divided into three groups (n = 5 each): two control groups (LUME, 10 mg/kg, oral, suspension in 0.25% sodium CMC and 97–78, 70 mg/kg, oral, suspension in 0.25% sodium CMC), and one co-administration group (70 mg/kg of oral 97–78 and 10 mg/kg of oral LUME). Blood samples (approximately 0.25 mL) were collected from the retro-orbital plexus into heparinized microfuge tubes at 0.25, 0.50, 1, 3, 6, 9, 11, 13, 15, 24, 48, 72, and 120 hrs post-dosing and plasma was harvested by centrifuging the blood at 15,000xg for 10 min and stored frozen at −70 ± 10°C until bio-analysis.
Plasma data were subjected to non-compartmental pharmacokinetics analysis using WinNonlin (version 5.1, Pharsight Corp, Mountain View, CA, USA). The observed maximum plasma concentration (Cmax) and the time to reach the maximum plasma concentration (Tmax) were obtained by visual inspection of the experimental data. Area under the plasma concentration-time curve from time zero to the last quantifiable concentration (AUC0-t) was calculated using linear trapezoidal rule. The total area under the plasma concentration–time curve from time zero to time infinity (AUC0-∞) was calculated as the sum of AUC0-t and Clast/kel, where, Clast represents the last quantifiable concentration and Kel represents the terminal phase rate constant. The apparent elimination half-life (t1/2) was calculated as 0.693/kel and the kel was estimated by linear regression of the plasma concentrations in the log-linear terminal phase. The clearance (Cl/F); where F represents the oral bioavailability, was calculated as dose/AUC, and the volume of distribution (Vd/F) was calculated as (Cl/F)/kel. The data is presented as a mean ± SD. The pharmacokinetic parameters were compared using Student’s t test. A P-value of <0.05 was considered significant. The relative bioavailability (RB %) was calculated as follows: RelativebioavailabilityRB%=AUCcoadimin/AUCcontrol×100

[3] = design: method as in PMID 21428247; settings: cited from earlier work
[4] = design: method as in PMID 21428247; settings: cited from earlier work; remark: listed apart in the source
[5] = 10 ng/mL, 6 hrs (BT) bench top 25 ± 2°C
[6] = 10 ng/mL, 24 hrs (AS) auto-sampler at 4°C, processed samples
[7] = 10 ng/mL, FT-3 (three freeze/thaw cycles, −70 ± 10°C)
[8] = 400 ng/mL, 6 hrs (BT) bench top 25 ± 2°C
[9] = 400 ng/mL, 24 hrs (AS) auto-sampler at 4°C, processed samples
[10] = 400 ng/mL, FT-3 (three freeze/thaw cycles, −70 ± 10°C)
[11] = LUME 10 mg/kg with 97-78 70 mg/kg oral, rats
[12] = LUME 10 mg/kg oral co-administered with 97-78 70 mg/kg oral
[13] = control: LUME 10 mg/kg oral alone

## C=C(c1ccc(OC(C)(C)CO)cc1)C1OCC2(OO1)C1CC3CC(C1)CC2C3 (centres unmarked) [97-63]
[1]; [5]
  Stability in rat plasma: Accuracy (%): 93.85%
[1]; [6]
  Stability in rat plasma: Accuracy (%): 104.67%
[1]; 10 ng/mL, 15 days at −70°C
  Stability in rat plasma: Accuracy (%): 100.47%
[1]; [7]
  Stability in rat plasma: Accuracy (%): 98.16%
[1]; [8]
  Stability in rat plasma: Accuracy (%): 95.85%
[1]; [9]
  Stability in rat plasma: Accuracy (%): 100.45%
[1]; 400 ng/mL, 15 days at −70°C
  Stability in rat plasma: Accuracy (%): 98.72%
[1]; [10]
  Stability in rat plasma: Accuracy (%): 99.79%

## C=C(c1ccc(OC(C)(C)COC(=O)CCC(=O)O)cc1)C1OCC2(OO1)C1CC3CC(C1)CC2C3 (centres unmarked) [97-78]
[2]; 97-78 70 mg/kg with LUME 10 mg/kg oral, rats
  effect of LUME co-administration on PK parameters of 97-78 other than Tmax: no significant effect
[3]
  conversion to 97-63 in plasma: rapidly converted
[4]
  conversion into active metabolite 97-63 in vivo: rapidly and completely converted

## CCCCN(CCCC)CC(O)c1cc(Cl)cc2c1-c1ccc(Cl)cc1C2=Cc1ccc(Cl)cc1 (centres unmarked) [LUME, 2-dibutylamino-1-[2,7-dichloro-9-(4-chlorobenzylidene)-9H-fluoren-4-yl]-ethanol]
[1]; [5]
  Stability in rat plasma: Accuracy (%): 101.73%
[1]; [6]
  Stability in rat plasma: Accuracy (%): 103.72%
[1]; 10 ng/mL, 15 days at −70°C
  Stability in rat plasma: Accuracy (%): 105.73%
[1]; [7]
  Stability in rat plasma: Accuracy (%): 99.48%
[1]; [8]
  Stability in rat plasma: Accuracy (%): 101.03%
[1]; [9]
  Stability in rat plasma: Accuracy (%): 101.51%
[1]; 400 ng/mL, 15 days at −70°C
  Stability in rat plasma: Accuracy (%): 102.54%
[1]; [10]
  Stability in rat plasma: Accuracy (%): 106.78%
[2]; rats
  RB% (relative bioavailability = AUC coadmin/AUC control × 100): 64.41^* %
[2]; rats, listed as lumefantrine
  RB% (relative bioavailability = AUC coadmin/AUC control × 100): 64.41%
[2]; LUME 10 mg/kg with 97-78 70 mg/kg oral vs LUME alone, rats, p <0.05
  decrease of AUC0-∞ of orally administered LUME in presence of 97-78: 63.26%
[2]; [11]
  effect of 97-78 co-administration on Cmax of LUME: not significantly altered
  effect of 97-78 co-administration on Tmax of LUME: not significantly altered
[2]; [12]
  AUC(0-inf): 11000 ± 660 ng·h/mL
  AUC(0-t): 10600 ± 710 ng·h/mL
  CL/F: 15.2 mL/min/kg
  Cmax: 1920 ± 620 ng/mL
  Tmax: 4 ± 2.45 h
  Vd/F: 62.7 ± 8.4 L/kg
  half-life: 47.8 ± 6.48 h
[2]; [13]
  AUC(0-inf): 17400 ± 3290 ng·h/mL
  AUC(0-t): 16500 ± 2960 ng·h/mL
  CL/F: 9.83 mL/min/kg
  Cmax: 1810 ± 750 ng/mL
  Tmax: 3.75 ± 1.5 h
  Vd/F: 39.5 ± 6.26 L/kg
  half-life: 46.9 ± 6.52 h
